Results taken from patent US9370520B2, “Macrocyclic LRRK2 kinase inhibitors” (IPSEN PHARMA S.A.S., priority 2011, dated 2016).
Like-named read-outs stand apart in the source and are kept apart here.

What was measured:
truncated LRRK2 = target: T1, truncated LRRK2 (Homo sapiens, UniProt Q5S007); experiment: radiometric protein kinase assay (33PanQinase Activity Assay, Protocol 2), truncated LRRK2; format: biochemical
T1 construct: a truncated LRRK2 enzyme (GST tagged LRRK2 of amino acids 970-2527); GST; purchased Invitrogen Corporation
T1 sequence (Q5S007 970-2527): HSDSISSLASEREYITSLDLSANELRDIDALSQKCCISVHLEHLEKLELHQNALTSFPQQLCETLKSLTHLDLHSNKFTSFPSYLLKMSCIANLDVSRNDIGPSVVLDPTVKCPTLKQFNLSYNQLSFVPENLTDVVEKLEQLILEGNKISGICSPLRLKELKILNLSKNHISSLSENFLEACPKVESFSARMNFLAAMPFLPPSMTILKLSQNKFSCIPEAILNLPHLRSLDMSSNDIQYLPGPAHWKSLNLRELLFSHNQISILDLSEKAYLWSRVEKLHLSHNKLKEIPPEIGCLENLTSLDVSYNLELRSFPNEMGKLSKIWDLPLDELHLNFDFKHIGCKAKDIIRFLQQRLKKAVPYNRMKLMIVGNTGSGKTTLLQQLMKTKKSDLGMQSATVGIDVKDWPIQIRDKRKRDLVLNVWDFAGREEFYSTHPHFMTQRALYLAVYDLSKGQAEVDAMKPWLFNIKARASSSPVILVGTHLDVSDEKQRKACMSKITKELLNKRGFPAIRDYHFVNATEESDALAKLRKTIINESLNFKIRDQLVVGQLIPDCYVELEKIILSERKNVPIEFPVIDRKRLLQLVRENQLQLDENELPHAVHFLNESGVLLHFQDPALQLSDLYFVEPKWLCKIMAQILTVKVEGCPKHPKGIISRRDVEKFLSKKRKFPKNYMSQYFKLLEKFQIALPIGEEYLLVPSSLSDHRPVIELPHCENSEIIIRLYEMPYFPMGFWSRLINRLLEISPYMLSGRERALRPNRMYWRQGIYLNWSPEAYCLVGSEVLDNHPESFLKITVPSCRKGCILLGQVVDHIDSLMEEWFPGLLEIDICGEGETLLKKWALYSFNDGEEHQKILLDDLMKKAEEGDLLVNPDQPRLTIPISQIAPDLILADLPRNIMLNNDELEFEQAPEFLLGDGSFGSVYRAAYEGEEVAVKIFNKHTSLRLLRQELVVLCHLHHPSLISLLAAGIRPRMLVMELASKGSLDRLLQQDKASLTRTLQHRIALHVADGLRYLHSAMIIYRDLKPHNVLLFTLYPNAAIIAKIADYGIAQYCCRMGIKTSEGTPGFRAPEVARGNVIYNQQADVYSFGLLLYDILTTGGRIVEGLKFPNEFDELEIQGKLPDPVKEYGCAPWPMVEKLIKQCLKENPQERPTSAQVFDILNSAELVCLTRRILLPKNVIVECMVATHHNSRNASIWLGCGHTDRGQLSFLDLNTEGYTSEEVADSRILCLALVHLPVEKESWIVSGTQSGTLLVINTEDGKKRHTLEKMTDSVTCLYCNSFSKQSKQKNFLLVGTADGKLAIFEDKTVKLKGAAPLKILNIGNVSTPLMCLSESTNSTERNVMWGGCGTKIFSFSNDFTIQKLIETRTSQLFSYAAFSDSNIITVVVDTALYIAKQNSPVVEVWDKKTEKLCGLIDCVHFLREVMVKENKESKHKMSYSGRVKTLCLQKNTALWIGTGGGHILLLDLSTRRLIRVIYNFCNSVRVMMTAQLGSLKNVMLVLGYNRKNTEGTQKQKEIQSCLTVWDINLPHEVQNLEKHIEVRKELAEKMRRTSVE
Protocol: (§1) The inhibition of LRRK2 and LRRK1 kinase was assessed using LRRK2 and LRRK1 recombinant protein in an in vitro peptide-based kinase assay.
A radiometric protein kinase assay (^33PanQinase® Activity Assay) is used for measuring the kinase activity. All assays are performed in 96-well FlashPlates™ from Perkin Elmer in a 50 μl reaction volume. The reaction cocktail is pipetted in 4 steps in the following order: • 10 μl of non-radioactive ATP solution (in H2O) • 25 μl of assay buffer/[γ-^33P]-ATP mixture • 5 μl of test sample in 10% DMSO • 10 μl of enzyme/substrate mixture
The kinase is obtained from Invitrogen Corporation.
The reaction cocktails were incubated at 30° C. for 60 minutes. The reaction was stopped with 50 μl of 2% (v/v) H3PO4, plates were aspirated and washed two times with 200 μl 0.9% (w/v) NaCl. Incorporation of ^33Pi (counting of “cpm”) was determined with a microplate scintillation counter.

[1] = target: T2, truncated LRRK2 (GST tagged LRRK2 of amino acids 970-2527) (Homo sapiens, UniProt Q5S007); experiment: LRRKtide 32P-ATP peptide kinase assay (Protocol 1), truncated LRRK2; format: biochemical; conditions: 10 μM ATP, 200 μM lrrktide
T2 construct: GST tagged LRRK2 of amino acids 970-2527; GST
T2 sequence (Q5S007 970-2527): as above
Protocol: as §1
(§2) LRRK2 protein is prepared as described in Daniëls et al. ((2011) J Neurochem 116, 304-315.). HEK293T cells are transfected with pCHMWS-3xflag-LRRK2 plasmid using polyethyleneimine and lysed after 48-72 hours in lysis buffer (Tris 20 mM pH 7.5, NaCl 150 mM, EDTA 1 mM, Triton 1%, Glycerol 10%, protease inhibitor cocktail). Lysates are cleared by centrifugation at 20,000 g for 10 minutes and incubated with normal mouse IgGs bound to agarose beads to remove proteins aspecifically binding to agarose or mouse IgGs. After removal of the IgG bead slurry, lysates are incubated for 3 to 18 hours with flagM2 bound to agarose beads. Beads are washed 4 times with wash buffer (Tris 25 mM pH 7.5, NaCl 400 mM, Triton 1%) and rinsed in kinase buffer (Tris-HCl 25 mM pH 7.5, 10 mM MgCl2, 2 mM dithiothreitol (DTT), 0.02% triton, 5 mM beta-glycerophosphate, 0.1 mM Na3VO4). Proteins are eluted in 5 volumes of kinase buffer containing 100 μg/ml 3xflag peptide. For assays using purified protein bound to affinity resin, affinity beads are resuspended in an equal volume of kinase buffer unless otherwise indicated. Purity and concentration are assessed by SDS-PAGE (3-8% tris-acetate SDS gel) and Coomassie Brilliant Blue staining or silver staining. Alternatively, a truncated LRRK2 enzyme (GST tagged LRRK2 of amino acids 970-2527) and a truncated LRRK2-G2019S (GST tagged LRRK2-G2019S of amino acids 970-2527) are used.
(§3) For Irrktide phosphorylation, recombinant LRRK2 is incubated with 6 μCi of 32P-ATP (3000 Ci/mmol), 200 μM Irrktide, 10 μM ATP and compound or solvent per 40 μl reaction for 30 minutes at 30° C. Compounds are tested at concentrations ranging from […]; the final amount of DMSO in the kinase reaction is 1%. Reactions are stopped and spotted to P81 phosphocellulose paper and washed 4×10 minutes in 75 mM phosphoric acid. Lrrktide phosphorylation levels are measured via autoradiography. Kinase assays are performed for each condition in triplicate.
(§4) LRRKtide phosphorylation levels are plotted vs. the log of the compound concentration and inhibition curves are fitted from which IC50 values are derived.

[2] = target: T3, truncated LRRK2-G2019S (GST tagged LRRK2-G2019S of amino acids 970-2527) (Homo sapiens, UniProt Q5S007, G2019S); experiment: LRRKtide 32P-ATP peptide kinase assay (Protocol 1), truncated LRRK2-G2019S; format: biochemical; conditions: 10 μM ATP, 200 μM lrrktide
T3 construct: GST tagged LRRK2-G2019S of amino acids 970-2527; GST
T3 sequence (Q5S007 970-2527 G2019S): as the sequence (Q5S007 970-2527) above, with G1050S counted along it
Protocol: as §1, §2, §3, §4

[3] = not given; remark: listed apart in the source
full-length LRRK2 = target: T4, full-length LRRK2 (Homo sapiens, UniProt Q5S007); experiment: LRRKtide 32P-ATP peptide kinase assay (Protocol 1), full-length LRRK2; format: biochemical; conditions: 10 μM ATP, 200 μM lrrktide
T4 construct: full-length; made in house; host or cells: HEK293T
T4 sequence (Q5S007 whole entry): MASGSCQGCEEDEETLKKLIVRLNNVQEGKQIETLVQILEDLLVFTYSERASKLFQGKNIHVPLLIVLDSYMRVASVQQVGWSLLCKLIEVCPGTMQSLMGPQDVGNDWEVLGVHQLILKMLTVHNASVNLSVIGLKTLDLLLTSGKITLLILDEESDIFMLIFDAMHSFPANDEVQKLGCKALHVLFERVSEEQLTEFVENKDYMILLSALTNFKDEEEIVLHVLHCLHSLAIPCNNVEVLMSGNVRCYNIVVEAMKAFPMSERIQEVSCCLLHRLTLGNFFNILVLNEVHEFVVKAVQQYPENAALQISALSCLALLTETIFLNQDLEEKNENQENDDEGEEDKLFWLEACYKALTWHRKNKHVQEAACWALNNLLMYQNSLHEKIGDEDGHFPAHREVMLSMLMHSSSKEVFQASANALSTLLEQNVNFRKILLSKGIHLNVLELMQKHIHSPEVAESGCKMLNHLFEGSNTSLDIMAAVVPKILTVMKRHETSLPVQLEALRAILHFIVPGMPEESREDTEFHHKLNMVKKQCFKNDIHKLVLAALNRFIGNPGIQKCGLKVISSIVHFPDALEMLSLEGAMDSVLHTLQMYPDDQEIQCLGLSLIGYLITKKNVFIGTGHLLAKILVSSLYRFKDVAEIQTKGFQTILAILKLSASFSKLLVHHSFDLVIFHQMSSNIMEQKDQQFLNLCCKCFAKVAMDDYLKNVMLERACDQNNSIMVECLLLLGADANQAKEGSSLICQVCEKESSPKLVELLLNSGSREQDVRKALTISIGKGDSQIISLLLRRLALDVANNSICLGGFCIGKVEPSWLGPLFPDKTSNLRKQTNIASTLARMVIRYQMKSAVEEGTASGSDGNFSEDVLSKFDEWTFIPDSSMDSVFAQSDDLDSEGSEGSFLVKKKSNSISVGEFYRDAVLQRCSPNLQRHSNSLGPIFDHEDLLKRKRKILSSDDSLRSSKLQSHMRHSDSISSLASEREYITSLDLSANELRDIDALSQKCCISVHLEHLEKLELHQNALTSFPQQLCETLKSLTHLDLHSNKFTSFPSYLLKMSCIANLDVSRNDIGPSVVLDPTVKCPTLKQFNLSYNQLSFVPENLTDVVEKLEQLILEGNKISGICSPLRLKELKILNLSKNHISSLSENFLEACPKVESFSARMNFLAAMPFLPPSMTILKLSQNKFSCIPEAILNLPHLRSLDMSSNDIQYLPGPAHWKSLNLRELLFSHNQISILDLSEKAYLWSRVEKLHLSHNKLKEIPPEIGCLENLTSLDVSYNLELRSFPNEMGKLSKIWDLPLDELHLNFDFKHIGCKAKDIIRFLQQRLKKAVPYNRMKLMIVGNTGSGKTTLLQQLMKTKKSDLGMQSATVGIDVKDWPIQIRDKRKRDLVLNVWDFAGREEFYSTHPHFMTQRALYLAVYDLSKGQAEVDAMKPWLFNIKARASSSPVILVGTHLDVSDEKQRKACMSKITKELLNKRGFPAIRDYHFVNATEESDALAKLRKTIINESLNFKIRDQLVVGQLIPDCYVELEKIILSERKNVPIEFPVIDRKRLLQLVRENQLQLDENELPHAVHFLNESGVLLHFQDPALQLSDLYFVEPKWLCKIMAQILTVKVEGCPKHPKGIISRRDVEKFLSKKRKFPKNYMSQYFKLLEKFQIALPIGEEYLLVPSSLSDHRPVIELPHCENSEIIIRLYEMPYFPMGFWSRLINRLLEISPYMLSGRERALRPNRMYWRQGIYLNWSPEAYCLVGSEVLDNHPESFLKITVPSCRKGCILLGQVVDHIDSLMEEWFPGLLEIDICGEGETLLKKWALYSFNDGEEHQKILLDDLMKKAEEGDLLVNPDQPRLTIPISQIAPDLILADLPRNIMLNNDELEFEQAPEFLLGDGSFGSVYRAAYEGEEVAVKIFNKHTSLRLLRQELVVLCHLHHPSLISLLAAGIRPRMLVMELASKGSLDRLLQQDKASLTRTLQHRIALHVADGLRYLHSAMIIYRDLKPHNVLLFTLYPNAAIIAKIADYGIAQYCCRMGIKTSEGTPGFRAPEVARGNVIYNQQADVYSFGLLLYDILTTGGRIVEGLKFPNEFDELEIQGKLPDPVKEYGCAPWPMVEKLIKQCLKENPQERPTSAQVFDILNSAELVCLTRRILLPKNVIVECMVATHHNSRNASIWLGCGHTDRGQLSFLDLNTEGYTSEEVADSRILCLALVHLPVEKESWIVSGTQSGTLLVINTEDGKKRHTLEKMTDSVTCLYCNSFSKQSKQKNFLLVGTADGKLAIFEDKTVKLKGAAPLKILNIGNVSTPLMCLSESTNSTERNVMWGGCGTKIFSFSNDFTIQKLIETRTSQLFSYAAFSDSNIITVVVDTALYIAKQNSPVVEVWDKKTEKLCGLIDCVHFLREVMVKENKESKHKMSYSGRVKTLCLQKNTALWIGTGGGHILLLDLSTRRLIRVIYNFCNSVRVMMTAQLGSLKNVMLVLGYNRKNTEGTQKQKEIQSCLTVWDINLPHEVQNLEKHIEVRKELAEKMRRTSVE
Protocol: as §1, §2
as §3, with “triplicate. […]” for “triplicate.”

[4] = Protocol 2, ATP 0.3 μM, substrate GSK3(14-27), read-out: IC50 for truncated LRRK2

| SMILES | IC50 (truncated LRRK2; [4]) | further results |
| --- | --- | --- |
| O=C1NCCN(C(=O)C2CC2)CCNc2ccn3ncc(c3n2)-c2cccc1c2 [Example 45] | 100 to 1000 nM |  |
| COCCC(=O)N1CCNCc2cccc(c2)-c2cnn3ccc(nc23)NCC1 [Compound 54] | 100 to 1000 nM |  |
| O=C(CN1CCOCC1)N1CCNc2ccn3ncc(c3n2)-c2cccc(c2)OCC1 [Example 36] | 100 to 1000 nM |  |
| CS(=O)(=O)N1CCNc2ccn3ncc(c3n2)-c2cccc(c2)OCC1 [Example 14] | 100 to 1000 nM |  |
| CN(C)C(=O)N1CCNc2ccn3ncc(c3n2)-c2cccc(c2)OCC1 [Example 11] | < 100 nM |  |
| CN(C)CCC(=O)N1CCNc2ccn3ncc(c3n2)-c2cccc(c2)OCC1 [Example 41] | < 100 nM |  |
| O=C(c1ccc[nH]1)N1CCNc2ccn3ncc(c3n2)-c2cccc(c2)OCC1 [Example 32] | < 100 nM |  |
| CN1CCN(CC(=O)N2CCNc3ccn4ncc(c4n3)-c3cccc(c3)OCC2)CC1 [Example 39] | 100 to 1000 nM |  |
| O=C(C1CC1)N1CCNc2ccn3ncc(c3n2)-c2cccc(c2)OCC1 [Example 1] |  | IC50 [1]: < 100 nM; IC50 [2]: < 100 nM; melting point: > 300 °C |
| O=C(N1CCNc2ccn3ncc(c3n2)-c2cccc(c2)OCC1)N1CCN(CCF)CC1 [Example 29] | 100 to 1000 nM |  |
| O=S1(=O)CCCOc2cccc(c2)-c2cnn3ccc(nc23)NCCN1 [Example 8] |  | melting point: 269 °C |
| CNCC(=O)N1CCNc2ccn3ncc(c3n2)-c2cccc(c2)OCC1 [Example 37] | < 100 nM |  |
| COCCC(=O)N1CCNc2ccn3ncc(c3n2)-c2cccc(c2)OCC1 [Example 31] | 100 to 1000 nM |  |
| O=C(C1CC1)N1CCNCc2cccc(c2)-c2cnn3ccc(nc23)NCC1 [Example 51] | 100 to 1000 nM |  |
| CN(C)CCN1CCNc2ccn3ncc(c3n2)-c2cccc(c2)OCC1=O [Example 46] | > 1000 nM |  |
| NC(=O)CN1CCNc2ccn3ncc(c3n2)-c2cccc(c2)OCC1 [Example 13] | < 100 nM |  |
| O=C1CCNc2ccn3ncc(c3n2)-c2cc(F)cc(c2)OCCN1 |  | ring closure, yield of all isomers ([3]; from NCCOc1cc(F)cc(-c2cnn3ccc(NCCC(=O)O)nc23)c1, amide bond, HBTU/DIPEA, DMF, 28.6 mM, 25.0 °C, 1.0 h): 18% |
| O=C1CNc2cccc(c2)-c2cnn3ccc(nc23)NCCN1 [Example 49] | 100 to 1000 nM |  |
| CCOC(=O)N1CCCNc2ccn3ncc(c3n2)-c2cccc(c2)OCC1 [Example 12] | 100 to 1000 nM |  |

| SMILES | IC50 (truncated LRRK2; [4]) | further results |
| --- | --- | --- |
| O=C(CCN1CCCC1)N1CCNc2ccn3ncc(c3n2)-c2cccc(c2)OCC1 [Example 40] | < 100 nM |  |
| O=C1CCC(=O)Nc2cccc(c2)-c2cnn3ccc(nc23)OCCCN1 [Compound 68] | > 1000 nM | melting point: 295.1 °C |
| O=S(=O)(C1CC1)N1CCNc2ccn3ncc(c3n2)-c2cccc(c2)OCC1 [Example 34] | 100 to 1000 nM |  |
| O=C1CN(C(=O)C2CC2)CCNc2ccn3ncc(c3n2)-c2cccc(c2)N1 [Compound 67] | > 1000 nM |  |
| O=C1CNc2ccn3ncc(c3n2)-c2cccc(c2)OCCCCN1 |  | ring closure, yield of all isomers ([3]; from NCCCCOc1cccc(-c2cnn3ccc(NCC(=O)O)nc23)c1, amide bond, HBTU/DIPEA, DMF, 10.0 mM, 25.0 °C, 2.0 h): 19%; melting point: > 300 °C |
| CC(=O)N1CCNCc2cccc(c2)-c2cnn3ccc(nc23)NCC1 [Example 52] | 100 to 1000 nM |  |
| CN(C)CCN1CCN(C(=O)C2CC2)CCOc2cccc(c2)-c2cnn3ccc1nc23 [Example 48] | 100 to 1000 nM |  |
| CC(C)C(=O)N1CCNCc2cccc(c2)-c2cnn3ccc(nc23)NCC1 [Compound 53] | > 1000 nM |  |
| CCC(=O)N1CCNc2cccc(c2)-c2cnn3ccc(nc23)NCC1 [Example 17] | < 100 nM |  |
| O=C1CCNCc2cccc(c2)-c2cnn3ccc(nc23)NCCN1 [Compound 59] | > 1000 nM |  |
| C=CC(=O)N1CCNc2ccn3ncc(c3n2)-c2cccc(c2)OCC1 [Compound 70] | < 100 nM | melting point: > 300 °C |
| CC(C)N1CCNc2ccn3ncc(c3n2)-c2cccc(c2)OCC1=O [Example 44] | > 1000 nM |  |
| CN1CCNc2ccn3ncc(c3n2)-c2cccc(c2)OCC1=O [Example 5] |  | IC50 (full-length LRRK2): 100 to 1000 nM; IC50 [1]: 100 to 1000 nM; IC50 [2]: 100 to 1000 nM; melting point: > 300 °C |
| O=C(C1CC1)N1CCOc2cccc(c2)-c2cnn3ccc(nc23)N(CCO)CC1 [Compound 63] | 100 to 1000 nM |  |
| O=C(CF)N1CCNc2ccn3ncc(c3n2)-c2cccc(c2)OCC1 [Example 50] |  | IC50 (truncated LRRK2): < 100 nM |
| O=C1CNc2ccn3ncc(c3n2)-c2cccc(c2)OCCCN1 [Compound 57] | > 1000 nM |  |
| COc1ccc2cc1OCCN(C(=O)C1CC1)CCNc1ccn3ncc-2c3n1 [Compound 66] | 100 to 1000 nM |  |
| CCCC(=O)N1CCNCc2cccc(c2)-c2cnn3ccc(nc23)NCC1 [Compound 55] | > 1000 nM |  |
| CN(C)CCN1CCN(C)c2ccn3ncc(c3n2)-c2cccc(c2)OCC1=O [Compound 58] | > 1000 nM |  |

| SMILES | IC50 (truncated LRRK2; [4]) | further results |
| --- | --- | --- |
| C[C@H]1NCc2cccc(c2)-c2cnn3ccc(nc23)NCCNC1=O [Compound 62] | > 1000 nM |  |
| COCCC(=O)N1CCCN(C)c2cccc(c2)-c2cnn3ccc(nc23)NCC1 [Example 19] | 100 to 1000 nM |  |
| O=C(C1CC1)N1CCNc2cccc(c2)-c2cnn3ccc(nc23)NCC1 [Example 35] | < 100 nM |  |
| CCC(=O)N1CCNc2ccn3ncc(c3n2)-c2cccc(c2)N(C)CC1 [Compound 71] |  | melting point: > 300 °C |
| CN1CCC(=O)NCCNc2ccn3ncc(c3n2)-c2cccc(c2)C1 [Compound 60] | < 100 nM |  |
| O=C(c1cocn1)N1CCNc2ccn3ncc(c3n2)-c2cccc(c2)OCC1 [Example 33] | < 100 nM |  |
| O=C(CCF)N1CCNc2ccn3ncc(c3n2)-c2cccc(c2)OCC1 [Example 10] | < 100 nM |  |
| O=C1CCCNc2ccn3ncc(c3n2)-c2cccc(c2)OCCCN1 [Example 43] | 100 to 1000 nM |  |
| CN(C)CCC(=O)N1CCNCc2cccc(c2)-c2cnn3ccc(nc23)NCC1 [Compound 56] | > 1000 nM |  |
| CN1CCNc2ccn3ncc(c3n2)-c2cccc(c2)OCCCS1(=O)=O [Example 47] | 100 to 1000 nM |  |
| CN1CCCOc2cccc(c2)-c2cnn3ccc(nc23)NCCCC1=O [Compound 65] | > 1000 nM |  |
| O=C1CNc2ccn3ncc(c3n2)-c2cccc(c2)OCCOCCN1 [Compound 72] |  | ring closure, yield of all isomers ([3]; from NCCOCCOc1cccc(-c2cnn3ccc(NCC(=O)O)nc23)c1, amide bond, HBTU/DIPEA, DMF, 10.0 mM, 25.0 °C, 2.0 h): 30%; melting point: 272.5 °C |
| COC(=O)c1cc2cc(c1)-c1cnn3ccc(nc13)N(C(=O)OC(C)(C)C)CCN(C(=O)OC(C)(C)C)CCO2 |  | ring closure, yield of all isomers ([3]; from COC(=O)c1cc(O)cc(-c2cnn3ccc(N(CCN(CCO)C(=O)OC(C)(C)C)C(=O)OC(C)(C)C)nc23)c1, ether bond, DIAD/PPh3, toluene, 8.7 mM, 90.0 °C, 3.5 h): 89% |
| O=C(CCO)N1CCNc2ccn3ncc(c3n2)-c2cccc(c2)OCC1 [Example 4] |  | IC50 [1]: < 100 nM; IC50 [2]: < 100 nM; melting point: > 300 °C |
| C[C@@H]1NCc2cccc(c2)-c2cnn3ccc(nc23)NCCNC1=O [Compound 64] | > 1000 nM |  |
| NC(=O)c1cc2cc(c1)-c1cnn3ccc(nc13)NCCN(C(=O)C1CC1)CCO2 [Compound 69] | > 1000 nM | melting point: > 300 °C |
| NC(=O)N1CCNc2ccn3ncc(c3n2)-c2cccc(c2)OCC1 [Example 38] | < 100 nM |  |
| N#Cc1ccc2cc1OCCN(C(=O)C1CC1)CCNc1ccn3ncc-2c3n1 [Example 42] | < 100 nM |  |
| CN1CC(=O)NCCNc2ccn3ncc(c3n2)-c2cccc1c2 [Compound 61] | > 1000 nM |  |
